As usually defined, the viability is a read-out of living cells in per cent, often relative to untreated cells. A word on the CC50: it is the concentration giving 50% cytotoxicity.

Structures are written as SMILES. Bounds are passed on as bounds.

Here are results for one compound from paper PMC12320831, “Synthesis and Biological Evaluation of New Chalcogen Semicarbazone (S, Se) and Their Azole Derivatives against Chagas Disease” (Journal of Medicinal Chemistry, 2024).

This series can be described thus: Host cell cytotoxicity (C2C12 viability). The class given is cell-based, Mouse. The conditions noted are these: mouse. The method, boiled down:
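Mouse C2C12 myoblasts co-seeded with CAI/72 trypomastigotes (10:1 parasite:cell) on compound, 48 h at 37 °C, 5% CO2. DAPI-stained fixed cells imaged; parasites per host cell normalized to 40 μM BNZ and DMSO. EC50 and C2C12 viability from dose-response curves, three biological replicates in triplicate.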

The compound `C/C(=N\Nc1nc(C)c[se]1)c1cccc([N+](=O)[O-])c1.Cl` [Se2h, (E)-4-Methyl-2-(2-(1-(3-nitrophenyl)ethylidene)hydrazineyl)-1,3-selenazole Hydrochloride] had a viability at 48 h, 10 µM (10 µM, < 50% viability considered cytotoxic) of over 100%. Moreover, the CC50 at 48 h (viability calculated at 10 μM) was over 10 µM.
